Reference: patent US10501479B2, “Benzenesulfonyl-asymmetric ureas and medical uses thereof” (HELSINN HEALTHCARE SA, priority 2016, dated 2019)

Target: T1, GHSR-1a (HEK293/GHSR1a cell line) (Homo sapiens, UniProt Q92847)
T1 construct: expressed in transfected cells; host or cells: HEK293/GHSR1a cell line
Assay: Ghrelin antagonist potency (IC50) with calcium FLIPR assay, ghrelin 10 nM
Assay type: cell-based
Settings: ghrelin antagonist potency, read-out: IC50 (Activity)
Procedure: Evaluation of Ghrelin Agonist (EC50) and Antagonist Potency (IC50) with Calcium FLIPR Assay:
The intracellular calcium assay was carried out in a 384-well format FLIPR™ (Molecular Device) HEK293/GHSR1a cell line. Cells were seeded 24 hr prior to the experiments at an optimal density per well. Preincubation with selected calcium dye lasted for 30-60 min at room temperature or 37° C. Test compounds, dissolved in DMSO, were added at the appropriate time and incubated for 15 min followed by the addition of ghrelin with FlexStation or FLIPR. Relative fluorescence was monitored by the FLIPR™ Molecular Device. EC50 and IC50 values were estimated from dose-response data using GraphPad Prism software. To check for GHSR-1a agonism, the compound was added at t=20 sec. and the calcium response was followed for 2 minutes. To check for GHSR-1a antagonism, the compound and Ghrelin (10 nM) were added to the cells at t=20 sec. and the calcium response was measured for 2 minutes. The potency of the antagonist was calculated by its ability to reduce the ghrelin response. Dose-response curves were made for relevant antagonists.

T1 sequence (Q92847 whole entry): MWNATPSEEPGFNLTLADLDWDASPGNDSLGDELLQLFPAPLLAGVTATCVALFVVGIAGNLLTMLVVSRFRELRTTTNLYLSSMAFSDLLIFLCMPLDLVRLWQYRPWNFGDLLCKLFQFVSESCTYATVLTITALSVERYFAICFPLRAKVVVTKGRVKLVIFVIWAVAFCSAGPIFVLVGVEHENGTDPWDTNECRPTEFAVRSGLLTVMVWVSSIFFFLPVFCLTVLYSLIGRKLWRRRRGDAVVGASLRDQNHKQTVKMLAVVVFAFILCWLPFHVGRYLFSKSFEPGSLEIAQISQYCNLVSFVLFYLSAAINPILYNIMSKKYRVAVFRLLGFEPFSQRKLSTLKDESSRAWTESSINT

## C[C@H](NC(=O)N(C)c1ccc(S(=O)(=O)Nc2ccc(CC(C)(C)N)cc2)cc1)c1ccc(-c2cnccn2)c(Cl)c1Cl [H0942, (S)-N-(4-(2-amino-2-methylpropyl)phenyl)-4-(3-(1-(2,3-dichloro-4-(pyrazin-2-yl)phenyl)ethyl)-1-methylureido) benzenesulfonamide]
  IC50: 2.04 µM

## COc1ccc([C@H](C)NC(=O)Nc2ccc(S(=O)(=O)Nc3ccccc3)cc2)c(Cl)c1Cl [H0950, (S)-4-(3-(1-(2,3-dichloro-4-methoxyphenyl)ethyl)ureido)-N-phenylbenzenesulfonamide]
  IC50: 20.8 µM

## COc1ccc([C@H](C)NC(=O)Nc2ccc(S(=O)(=O)Nc3ccc(C)cc3)cc2)c(Cl)c1Cl [H0953, (S)-4-(3-(1-(2,3-dichloro-4-methoxyphenyl)ethyl)ureido)-N-(p-tolyl)benzenesulfonamide]
  IC50: > 30 µM

## CC(=O)N(C)S(=O)(=O)c1ccc(NC(=O)N[C@@H](C)c2ccc(-c3cnccn3)c(Cl)c2Cl)cc1 [H0954, (S)-N-((4-(3-(1-(2,3-dichloro-4-(pyrazin-2-yl)phenyl)ethyl)ureido)phenyl)sulfonyl)-N-methylacetamide]
  IC50: > 30 µM

## Cc1ccc(CS(=O)(=O)c2ccc(NC(=O)N[C@@H](C)c3ccc(-c4cnccn4)c(Cl)c3Cl)cc2)cc1 [H0963, (S)-1-(1-(2,3-dichloro-4-(pyrazin-2-yl)phenyl)ethyl)-3-(4-((4-methylbenzyl)sulfonyl)phenyl)urea]
  IC50: > 30 µM

## C[C@H](NC(=O)Nc1ccc(S(=O)(=O)Nc2ccccc2)cc1)c1cccc(Cl)c1Cl [H0965, (S)-4-(3-(1-(2,3-dichlorophenyl)ethyl)ureido)-N-phenylbenzenesulfonamide]
  IC50: > 30 µM

## Cc1ccc(NS(=O)(=O)c2ccc(NC(=O)N[C@@H](C)c3cccc(Cl)c3Cl)cc2)cc1 [H0966, (S)-4-(3-(1-(2,3-dichlorophenyl)ethyl)ureido)-N-(p-tolyl)benzenesulfonamide]
  IC50: 6.58 µM

## COc1ccc(C(C)(C)NC(=O)Nc2ccc(S(=O)(=O)Nc3ccc(CC(C)(C)N)cc3)cc2)c(Cl)c1Cl [H0975, N-(4-(2-amino-2-methylpropyl)phenyl)-4-(3-(2-(2,3-dichloro-4-methoxyphenyl)propan-2-yl)ureido)benzenesulfonamide]
  IC50: 0.0095 µM

## CN(C)C(C)(C)Cc1ccc(CS(=O)(=O)c2ccc(NC(=O)NCc3cccc(Cl)c3Cl)cc2)cc1 [H0981, 1-(2,3-dichlorobenzyl)-3-(4-((4-(2-(dimethylamino)-2-methylpropyl)benzyl)sulfonyl)phenyl)urea]
  IC50: 0.0095 µM

## COc1ccc([C@H](C)NC(=O)Nc2ccc(S(=O)(=O)Nc3ccc4[nH]ccc4c3)cc2)c(Cl)c1Cl [H0990, (S)-4-(3-(1-(2,3-dichloro-4-methoxyphenyl)ethyl)ureido)-N-(1H-indol-5-yl) benzenesulfonamide]
  IC50: 0.823 µM

## C[C@H](NC(=O)Nc1ccc(S(=O)(=O)Nc2ccc3c(c2)CCCN3)cc1)c1cccc(Cl)c1Cl [H1003, (S)-4-(3-(1-(2,3-dichlorophenyl)ethyl)ureido)-N-(1,2,3,4-tetrahydroquinolin-6-yl)benzenesulfonamide]
  IC50: 2.02 µM

## COc1ccc([C@H](C)NC(=O)Nc2ccc(S(=O)(=O)Nc3ccc4c(c3)CCCN4)cc2)c(Cl)c1Cl [H1008, (S)-4-(3-(1-(2,3-dichloro-4-methoxyphenyl)ethyl)ureido)-N-(1,2,3,4-tetrahydroquinolin-6-yl)benzenesulfonamide]
  IC50: 6.38 µM

## COc1ccc([C@H](C)NC(=O)Nc2ccc(S(=O)(=O)Cc3ccc4c(c3)CCN(S(C)(=O)=O)C4)cc2)c(Cl)c1Cl [H1026, (S)-1-(1-(2,3-dichloro-4-methoxyphenyl)ethyl)-3-(4-(((2-(methylsulfonyl)-1,2,3,4-tetrahydroisoquinolin-6-yl)methyl)sulfonyl)phenyl)urea]
  IC50: 14.9 µM

## COc1ccc([C@H](C)NC(=O)Nc2ccc(S(=O)(=O)Nc3ccc4c(c3)CCN(S(C)(=O)=O)C4)cc2)c(Cl)c1Cl [H1033, (S)-4-(3-(1-(2,3-dichloro-4-methoxyphenyl)ethyl)ureido)-N-(2-(methylsulfonyl)-1,2,3,4-tetrahydroisoquinolin-6-yl)benzenesulfonamide]
  IC50: 3.02 µM

## C[C@H](NC(=O)Nc1ccc(S(=O)(=O)Cc2ccc3c(c2)NCC3)cc1)c1cccc(Cl)c1Cl [H1045, (S)-1-(1-(2,3-dichlorophenyl)ethyl)-3-(4-((indolin-6-ylmethyl)sulfonyl)phenyl)urea]
  IC50: 2.74 µM

## O=C(NCc1cccc(Cl)c1Cl)Nc1ccc(S(=O)(=O)Cc2ccc3c(c2)NCC3)cc1 [H1046, 1-(2,3-dichlorobenzyl)-3-(4-((indolin-6-ylmethyl)sulfonyl)phenyl)urea]
  IC50: 1.99 µM

## O=C(NCc1cccc(Cl)c1Cl)Nc1ccc(S(=O)(=O)Cc2ccc3c(c2)CCN3)cc1 [H1048, 1-(2,3-dichlorobenzyl)-3-(4-((indolin-5-ylmethyl)sulfonyl)phenyl)urea]
  IC50: 16.8 µM

## C[C@H](NC(=O)Nc1ccc(S(=O)(=O)NCCC2CCNCC2)cc1)c1cccc(Cl)c1Cl [H1052, (S)-4-(3-(1-(2,3-dichlorophenyl)ethyl)ureido)-N-(2-(piperidin-4-yl)ethyl)benzenesulfonamide]
  IC50: 0.467 µM

## COC(=O)c1ccc(CS(=O)(=O)c2ccc(NC(=O)N[C@@H](C)c3cccc(Cl)c3Cl)cc2)cc1 [H1058, methyl (S)-4-(((4-(3-(1-(2,3-dichlorophenyl)ethyl)ureido)phenyl)sulfonyl)methyl)benzoate]
  IC50: 20 µM

## C[C@H](NC(=O)Nc1ccc(S(=O)(=O)Cc2ccc(C(=O)O)cc2)cc1)c1cccc(Cl)c1Cl [H1059]
  IC50: > 30 µM

## COC(=O)c1ccc(NS(=O)(=O)c2ccc(NC(=O)N[C@@H](C)c3cccc(Cl)c3Cl)cc2)cc1 [H1061, methyl (S)-4-((4-(3-(1-(2,3-dichlorophenyl)ethyl)ureido)phenyl)sulfonamido)benzoate]
  IC50: 2.87 µM

## C[C@H](NC(=O)Nc1ccc(S(=O)(=O)Cc2ccc(-c3cccnc3)cc2)cc1)c1cccc(Cl)c1Cl [H1070, (S)-1-(1-(2,3-dichlorophenyl)ethyl)-3-(4-((4-(pyridin-3-yl)benzyl)sulfonyl)phenyl)urea]
  IC50: 5.29 µM

## C[C@H](NC(=O)Nc1ccc(S(=O)(=O)Cc2ccc(C(N)=O)cc2)cc1)c1cccc(Cl)c1Cl [H1073, (S)-4-(((4-(3-(1-(2,3-dichlorophenyl)ethyl)ureido)phenyl)sulfonyl)methyl)benzamide]
  IC50: > 30 µM

## COC(=O)Cc1ccc(NS(=O)(=O)c2ccc(NC(=O)N[C@@H](C)c3cccc(Cl)c3Cl)cc2)cc1 [H1075, methyl (S)-2-(4-((4-(3-(1-(2,3-dichlorophenyl)ethyl)ureido)phenyl)sulfonamido)phenyl)acetate]
  IC50: 3.02 µM

## C[C@H](NC(=O)Nc1ccc(S(=O)(=O)CC2CC2)cc1)c1cccc(Cl)c1Cl [H1078, (S)-1-(4-((cyclopropylmethyl)sulfonyl)phenyl)-3-(1-(2,3-dichlorophenyl)ethyl)urea]
  IC50: 3.58 µM

## C[C@H](NC(=O)Nc1ccc(S(=O)(=O)C(C)(C)c2ccc3c(c2)CCNC3)cc1)c1cccc(Cl)c1Cl [H1081, (S)-1-(1-(2,3-dichlorophenyl)ethyl)-3-(4-((2-(1,2,3,4-tetrahydroisoquinolin-6-yl)propan-2-yl)sulfonyl)phenyl)urea]
  IC50: 1.24 µM

## COc1cccc(CS(=O)(=O)c2ccc(NC(=O)N[C@@H](C)c3cccc(Cl)c3Cl)cc2)c1 [H1082, (S)-1-(1-(2,3-dichlorophenyl)ethyl)-3-(4-((3-methoxybenzyl)sulfonyl)phenyl)urea]
  IC50: > 30 µM

## C[C@H](NC(=O)Nc1ccc(S(=O)(=O)Cc2cccc(O)c2)cc1)c1cccc(Cl)c1Cl [H1084, (S)-1-(1-(2,3-dichlorophenyl)ethyl)-3-(4-((3-hydroxybenzyl)sulfonyl)phenyl)urea]
  IC50: 3.5 µM

## COC(=O)c1cccc(CS(=O)(=O)c2ccc(NC(=O)N[C@@H](C)c3cccc(Cl)c3Cl)cc2)c1 [H1087, methyl (S)-3-(((4-(3-(1-(2,3-dichlorophenyl)ethyl)ureido)phenyl)sulfonyl)methyl)benzoate]
  IC50: 8.18 µM

## C[C@H](NC(=O)Nc1ccc(S(=O)(=O)Nc2ccc(CCO)cc2)cc1)c1ccccc1Cl [H1095, (S)-4-(3-(1-(2-chlorophenyl)ethyl)ureido)-N-(4-(2-hydroxyethyl)phenyl) benzenesulfonamide]
  IC50: 1.43 µM

## C[C@H](NC(=O)Nc1ccc(S(=O)(=O)CCN2CCOCC2)cc1)c1cccc(Cl)c1Cl [H1096, (S)-1-(1-(2,3-dichlorophenyl)ethyl)-3-(4-((2-morpholinoethyl)sulfonyl)phenyl)urea]
  IC50: ≥ 30 µM

## C[C@H](NC(=O)Nc1ccc(S(=O)(=O)Cc2ccc(C#N)cc2)cc1)c1cccc(Cl)c1Cl [H1101, (S)-1-(4-((4-cyanobenzyl)sulfonyl)phenyl)-3-(1-(2,3-dichlorophenyl)ethyl)urea]
  IC50: ≥ 30 µM

## C[C@H](NC(=O)Nc1ccc(S(=O)(=O)Nc2ccc(-c3ncc[nH]3)cc2)cc1)c1cccc(Cl)c1Cl [H1110, (S)-N-(4-(1H-imidazol-2-yl)phenyl)-4-(3-(1-(2,3-dichlorophenyl)ethyl)ureido) benzenesulfonamide]
  IC50: 0.95 µM

## C[C@H](NC(=O)Nc1ccc(S(=O)(=O)Nc2ccc(N)nc2)cc1)c1cccc(Cl)c1Cl [H1126, (S)-N-(6-aminopyridin-3-yl)-4-(3-(1-(2,3-dichlorophenyl)ethyl)ureido) benzenesulfonamide]
  IC50: 0.183 µM

## O=C(NCc1ccccc1)Nc1ccc(S(=O)(=O)Cc2ccc(CO)cc2)cc1 [H1131, 1-benzyl-3-(4-((4-(hydroxymethyl)benzyl)sulfonyl)phenyl)urea]
  IC50: ≥ 30 µM
